Data from US20230151025A1, “SUBSTITUTED THIAZOLOPYRIDINES, SALTS THEREOF AND THEIR USE AS HERBICIDALLY ACTIVE SUBSTANCES” (Bayer Aktiengesellschaft, priority 2020, published 2023).

Tests used:
Type in all cases: in vivo
[1] = test system: Poa annua (POAAN); experiment: Herbicidal pre-emergence action (A), 1280 g/ha; details: visual grading after ca. 3 weeks vs untreated controls, 100% = plants have died off, 0% = as control plants
From the text: (§1) ABUTH: Abutilon theophrasti AGSTE: Agrostis tenuis ALOMY: Alopecurus myosuroides AMARE Amaranthus retroflexus DIGSA: Digitaria sanguinalis ECHCG: Echinochloa crus-galli KCHSC: Kochia scoparia LOLRI: Lolium rigidum MATIN: Matricaria inodora POAAN: Poa annua POLCO: Polygonum convolvulus SETVI: Setaria viridis STEME: Stellaria media VERPE: Veronica persica VIOTR: Viola tricolor
(§2) Seeds of mono- and dicotyledonous weed plants were sown in plastic pots (double sowings with one species of mono- and one species of dicotyledonous weed plants per pot), in sandy loam, and covered with soil. The compounds according to the invention, formulated in the form of wettable powders (WP) or as emulsifiable concentrates (EC), were applied to the surface of the covering soil as aqueous suspension or emulsion, with the addition of 0.5% of an additive, at an application rate of 600 l of water per hectare (converted). Following treatment, the pots were placed in a greenhouse and kept under optimum growth conditions for the test plants. The visual grading of the damage to the test plants was carried out after ca. 3 weeks in comparison to untreated controls (herbicidal effect in percent (%): 100% effect=plants have died off, 0% effect=as control plants).
(§3) Tables A1 to A12, below, show the effects of selected compounds of the general formula (I) according to table 1 on various harmful plants and an application rate corresponding to 1280 g/ha obtained by the experimental procedure mentioned above.

[2] = test system: Stellaria media (STEME); experiment: Herbicidal pre-emergence action (A), 1280 g/ha; details: visual grading after ca. 3 weeks vs untreated controls
From the text: as §1, §2, §3

[3] = test system: Kochia scoparia (KCHSC; Bassia scoparia); experiment: Herbicidal pre-emergence action (A), 1280 g/ha; details: visual grading after ca. 3 weeks vs untreated controls
From the text: as §1, §2, §3

[4] = test system: Digitaria sanguinalis (DIGSA); experiment: Herbicidal pre-emergence action (A), 1280 g/ha; details: visual grading after ca. 3 weeks vs untreated controls, 100% = plants have died off, 0% = as control plants
From the text: as §1, §2, §3

[5] = test system: Stellaria media (STEME); experiment: Herbicidal post-emergence action (B), 1280 g/ha
From the text: as §1
(§4) Seeds of mono- and dicotyledonous weed plants were placed in plastic pots in sandy loam soil (doubly sown with in each case one species of mono- or dicotyledonous weed plants per pot), covered with soil and cultivated in a greenhouse under controlled growth conditions. 2 to 3 weeks after sowing, the test plants were treated at the one-leaf stage. The compounds of the invention, formulated in the form of wettable powders (WP) or as emulsion concentrates (EC), were applied onto the green parts of the plants as aqueous suspension or emulsion with addition of 0.5% additive at a water application rate of 600 liters per hectare (converted). After the test plants had been kept in the greenhouse under optimum growth conditions for about 3 weeks, the activity of the preparations was rated visually in comparison to untreated controls. For example, 100% activity=the plants have died, 0% activity=like control plants.
(§5) Tables B1 to B12, below, show the effects of selected compounds of the general formula (I) according to table 1 on various harmful plants and an application rate corresponding to 1280 g/ha obtained by the experimental procedure mentioned above.

[6] = test system: Abutilon theophrasti (ABUTH); experiment: Herbicidal post-emergence action (B), 1280 g/ha; details: rated visually after about 3 weeks vs untreated controls
From the text: as §1, §4, §5

[7] = test system: Kochia scoparia (KCHSC; Bassia scoparia); experiment: Herbicidal post-emergence action (B), 1280 g/ha
From the text: as §1, §4, §5

[8] = test system: Alopecurus myosuroides (ALOMY); experiment: Herbicidal post-emergence action (B), 1280 g/ha; details: rated visually after about 3 weeks vs untreated controls
From the text: as §1, §4, §5

[9] = test system: Veronica persica (VERPE); experiment: Herbicidal post-emergence action (B), 1280 g/ha
From the text: as §1, §4, §5

[10] = test system: Amaranthus retroflexus (AMARE); experiment: Herbicidal post-emergence action (B), 1280 g/ha; details: rated visually after about 3 weeks vs untreated controls
From the text: as §1, §4, §5

[11] = test system: Echinochloa crus-galli (ECHCG); experiment: Herbicidal pre-emergence action (A), 1280 g/ha; details: visual grading after ca. 3 weeks vs untreated controls, 100% = plants have died off, 0% = as control plants
From the text: as §1, §2, §3

[12] = test system: Lolium rigidum (LOLRI); experiment: Herbicidal pre-emergence action (A), 1280 g/ha; details: visual grading after ca. 3 weeks vs untreated controls, 100% = plants have died off, 0% = as control plants
From the text: as §1, §2, §3

[13] = test system: Setaria viridis (SETVI); experiment: Herbicidal pre-emergence action (A), 1280 g/ha; details: visual grading after ca. 3 weeks vs untreated controls
From the text: as §1, §2, §3

[14] = test system: Echinochloa crus-galli (ECHCG); experiment: Herbicidal post-emergence action (B), 1280 g/ha; details: rated visually after about 3 weeks vs untreated controls
From the text: as §1, §4, §5

[15] = test system: Poa annua (POAAN); experiment: Herbicidal post-emergence action (B), 1280 g/ha; details: rated visually after about 3 weeks vs untreated controls
From the text: as §1, §4, §5

[16] = test system: Amaranthus retroflexus (AMARE); experiment: Herbicidal pre-emergence action (A), 1280 g/ha; details: visual grading after ca. 3 weeks vs untreated controls
From the text: as §1, §2, §3

[17] = test system: Veronica persica (VERPE); experiment: Herbicidal pre-emergence action (A), 1280 g/ha; details: visual grading after ca. 3 weeks vs untreated controls
From the text: as §1, §2, §3

[18] = test system: Alopecurus myosuroides (ALOMY); experiment: Herbicidal pre-emergence action (A), 1280 g/ha; details: visual grading after ca. 3 weeks vs untreated controls, 100% = plants have died off, 0% = as control plants
From the text: as §1, §2, §3

[19] = test system: Matricaria inodora (MATIN); experiment: Herbicidal pre-emergence action (A), 1280 g/ha; details: visual grading after ca. 3 weeks vs untreated controls
From the text: as §1, §2, §3

SMILES	POAAN, herbicidal effect in percent (%) [1] [%]	herbicidal effect STEME [2] [%]	herbicidal effect KCHSC [3] [%]	DIGSA, herbicidal effect in percent (%) [4] [%]	herbicidal effect STEME [5] [%]	herbicidal activity ABUTH [6] [%]	herbicidal effect KCHSC [7] [%]	herbicidal activity ALOMY [8] [%]	herbicidal effect VERPE [9] [%]	herbicidal activity AMARE [10] [%]	ECHCG, herbicidal effect in percent (%) [11] [%]	LOLRI, herbicidal effect in percent (%) [12] [%]	herbicidal effect SETVI [13] [%]	herbicidal activity ECHCG [14] [%]	herbicidal activity POAAN [15] [%]	herbicidal effect AMARE [16] [%]	herbicidal effect VERPE [17] [%]	ALOMY, herbicidal effect in percent (%) [18] [%]	herbicidal effect MATIN [19] [%]
Fc1ccccc1-c1nc2nc(Cl)sc2cc1Br [Example I-053, 6-bromo-2-chloro-5-(2-fluorophenyl)thiazolo[4,5-b]pyridine]	100	100	90	100	100	90	90	100											
COC(=O)c1nc2nc(-c3ccccc3F)c(Br)cc2s1 [Example I-054, methyl 6-bromo-5-(2-fluorophenyl)thiazolo[4,5-b]pyridine-2-carboxylate]	100					90	90		90	100									
CCOc1nc2nc(-c3ccccc3C)c(CC)cc2s1 [Example I-055]	100	90	100								100	90	100	90	100				
CCc1cc2sc(S(C)(=O)=O)nc2nc1-c1ccccc1F [Example I-059]	100		90	100		100	90		100	100			100						
N#Cc1nc2nc(-c3ccccc3F)c(Br)cc2s1 [Example I-070, 6-bromo-5-(2-fluorophenyl)thiazolo[4,5-b]pyridine-2-carbonitrile]						90				100			100			100			
N#CCc1nc2nc(-c3ccccc3F)c(Br)cc2s1 [Example I-071]	100	90	90		90		90	90	90	90	100	100	90			90	90		
Cc1ccccc1-c1nc2ncsc2cc1Cl [Example I-083]	100	100		100	100		90		90	100	100	100	100				100	100	
CCOC(=O)C(C#N)c1nc2nc(-c3ccccc3F)c(Br)cc2s1 (centres unmarked) [Example I-086]	90						90	100		100								90	
Cc1cc2sc([S+](C)[O-])nc2nc1-c1ccccc1F (centres unmarked) [Example I-104]	100	90	100	100			100		100	90			100			90	90		90
Cc1cc2scnc2nc1-c1cccnc1C [Example I-130]	100					90	90		90				100			90			
Cc1sccc1-c1ccc2scnc2n1 [Example I-133]	90	90	90			90				90	100	100	100	90	100	90	90	100	
Cc1cscc1-c1nc2ncsc2cc1Br [Example I-141]	100	90					90		90	90	100		100	90		90	90	100	90
Cc1cc2sc(S)nc2nc1-c1ccccc1F [Example I-155]	100		90	90			100		90	100	100		100			90	90		
Cc1cc2sc(S)nc2nc1-c1ccccc1Cl [Example I-169]	100		90			100	90		90	90	90		90			90			
Cc1c(Br)c(-c2ccccc2F)nc2ncsc12 [Example I-186]					90	90			90	100									
Cc1cc(C)c(-c2nc3ncsc3cc2C)s1 [Example I-195]	100	90	90				90	100			100	100	100		100		90		90
Cc1cc2scnc2nc1-c1sc(Br)cc1C [Example I-198]	100	90					90	90	100		100	90	100				90	100	
